target: human kinase Mps-1 (Homo sapiens (Human), UniProt P33981); assay: Mps-1 kinase assay (TR-FRET); format: biochemical; details: N-terminally GST-tagged human full length recombinant Mps-1; 10 μM ATP; 1 μM biotinylated peptide substrate; read-out: Mps1 IC50
Method: The human kinase Mps-1 phosphorylates a biotinylated substrate peptide. Detection of the phosphorylated product is achieved by time-resolved fluorescence resonance energy transfer (TR-FRET) from Europium-labelled anti-phospho-Serine/Threonine antibody as donor to streptavidin labelled with cross-linked allophycocyanin (SA-XLent) as acceptor. Compounds are tested for their inhibition of the kinase activity.
N-terminally GST-tagged human full length recombinant Mps-1 kinase (purchased from Invitrogen, Karslruhe, Germany, cat. no PV4071) was used. As substrate for the kinase reaction a biotinylated peptide of the amino-acid sequence […] (C-terminus in amide form, purchased from Biosynthan GmbH, Berlin) was used.
The concentration of Mps-1 in the assay was adjusted to the activity of the enzyme lot and was chosen appropriate to have the assay in the linear range, typical enzyme concentrations were in the range of about 1 nM (final conc. in the 5 μl assay volume).
The resulting mixture was incubated 1 h at 22° C. to allow the binding of the phosphorylated peptide to the anti-phospho(Ser/Thr)-Europium-antibody. Subsequently the amount of phosphorylated substrate was evaluated by measurement of the resonance energy transfer from the Europium-labelled anti-phospho(Ser/Thr) antibody to the Streptavidin-XLent.

human kinase Mps-1, sequence (P33981 whole entry): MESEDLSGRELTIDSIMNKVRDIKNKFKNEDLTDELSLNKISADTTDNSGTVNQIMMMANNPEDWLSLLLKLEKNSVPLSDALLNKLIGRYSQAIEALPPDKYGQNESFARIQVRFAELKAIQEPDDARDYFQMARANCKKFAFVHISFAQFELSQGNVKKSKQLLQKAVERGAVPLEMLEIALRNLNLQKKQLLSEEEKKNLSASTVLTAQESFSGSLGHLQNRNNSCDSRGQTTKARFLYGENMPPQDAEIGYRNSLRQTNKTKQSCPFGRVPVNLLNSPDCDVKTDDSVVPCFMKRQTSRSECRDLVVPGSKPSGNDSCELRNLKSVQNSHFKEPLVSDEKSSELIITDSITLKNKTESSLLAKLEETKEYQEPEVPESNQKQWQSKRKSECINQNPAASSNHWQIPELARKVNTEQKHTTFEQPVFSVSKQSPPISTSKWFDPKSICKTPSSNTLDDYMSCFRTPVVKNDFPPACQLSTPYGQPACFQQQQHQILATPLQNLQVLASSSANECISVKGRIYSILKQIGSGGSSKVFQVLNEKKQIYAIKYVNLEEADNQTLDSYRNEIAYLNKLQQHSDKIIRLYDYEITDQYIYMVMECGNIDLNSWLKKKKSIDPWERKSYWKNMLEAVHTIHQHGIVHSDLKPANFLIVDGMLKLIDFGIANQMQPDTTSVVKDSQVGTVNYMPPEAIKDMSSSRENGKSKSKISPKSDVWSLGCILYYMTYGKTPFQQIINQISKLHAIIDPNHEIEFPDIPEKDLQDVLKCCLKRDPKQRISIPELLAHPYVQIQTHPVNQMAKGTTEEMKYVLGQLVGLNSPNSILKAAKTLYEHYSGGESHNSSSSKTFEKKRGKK

| IC50 | Compound |
| --- | --- |
| 2.7 nM | COc1ccc(C(C)(O)c2cc(NCCC(F)(F)F)c3ncn(-c4ccc(C(=O)NC5CC5)c(C)c4)c3c2)cc1F (racemic) [Example 103A, N-cyclopropyl-4-{6-[(1RS)-1-(3-fluoro-4-methoxyphenyl)-1-hydroxyethyl]-4-[(3,3,3-trifluoropropyl)amino]-1H-benzimidazol-1-yl}-2-methylbenzamide] |
| 2.9 nM | COc1ccc(C(C)c2cc(NCCC(F)(F)F)c3ncn(-c4ccc(C(=O)NC5CC5)c(C)c4)c3c2)cc1F (racemic) [Example 105, N-cyclopropyl-4-{6-[(1RS)-1-(3-fluoro-4-methoxyphenyl)ethyl]-4-[(3,3,3-trifluoropropyl)amino]-1H-benzimidazol-1-yl}-2-methylbenzamide] |
| 0.2 nM | Cc1cc(-n2cnc3c(NCCC(F)(F)F)cc(-c4ccncc4)cc32)ccc1C(=O)NC1CC1 [Example 2, N-cyclopropyl-2-methyl-4-{6-(pyridin-4-yl)-4-[(3,3,3-trifluoropropyl)amino]-1H-benzimidazol-1-yl}benzamide] |
| 1.5 nM | Cc1ccc(F)cc1Nc1cc(NCCC(F)(F)F)c2ncn(-c3ccc(C(=O)NC4CC4)c(C)c3)c2c1 [Example 3, N-Cyclopropyl-4-{6-[(5-fluoro-2-methylphenyl)amino]-4-[(3,3,3-trifluoropropyl)amino]-1H-benzimidazol-1-yl}-2-methylbenzamide] |
| 0.7 nM | Cc1cc(-n2cnc3c(NCCC(F)(F)F)cc(Oc4cccc(F)c4)cc32)ccc1C(=O)NC1CC1 [Example 4, N-cyclopropyl-4-{6-(3-fluorophenoxy)-4-[(3,3,3-trifluoropropyl)amino]-1H-benzimidazol-1-yl}-2-methylbenzamide] |
| 2.3 nM | Cc1cc(-n2cnc3c(NCCC(F)(F)F)cc(Nc4cccc(F)c4F)cc32)ccc1C(=O)NC1CC1 [Example 5, N-cyclopropyl-4-{6-[(2,3-difluorophenyl)amino]-4-[(3,3,3-trifluoropropyl)amino]-1H-benzimidazol-1-yl}-2-methylbenzamide] |
| 0.4 nM | Cc1cc(-n2cnc3c(NCC4CCOCC4)cc(Oc4cccc(F)c4)cc32)ccc1C(=O)NC1CC1 [Example 9, N-cyclopropyl-4-{6-(3-fluorophenoxy)-4-[(tetrahydro-2H-pyran-4-ylmethyl)amino]-1H-benzimidazol-1-yl}-2-methylbenzamide] |
| 0.5 nM | Cc1cc(-n2cnc3c(NCCC(F)(F)F)cc(Oc4cccc(F)c4F)cc32)ccc1C(=O)NC1CC1 [Example 14, N-cyclopropyl-4-{6-(2,3-difluorophenoxy)-4-[(3,3,3-trifluoropropyl)amino]-1H-benzimidazol-1-yl}-2-methylbenzamide] |
| 0.6 nM | Cc1cc(F)cc(Oc2cc(NCC3CCOCC3)c3ncn(-c4ccc(C(=O)NC5CC5)c(C)c4)c3c2)c1 [Example 15, N-cyclopropyl-4-{6-(3-fluoro-5-methylphenoxy)-4-[(tetrahydro-2H-pyran-4-ylmethyl)amino]-1H-benzimidazol-1-yl}-2-methylbenzamide] |
| 0.6 nM | Cc1ccc(F)cc1Oc1cc(NCC2CCOCC2)c2ncn(-c3ccc(C(=O)NC4CC4)c(C)c3)c2c1 [Example 16, N-cyclopropyl-4-{6-(5-fluoro-2-methylphenoxy)-4-[(tetrahydro-2H-pyran-4-ylmethyl)amino]-1H-benzimidazol-1-yl}-2-methylbenzamide] |
| 1.1 nM | Cc1cc(-n2cnc3c(NCC4CCOCC4)cc(Oc4ccc(F)c(F)c4)cc32)ccc1C(=O)NC1CC1 [Example 17, N-cyclopropyl-4-{6-(3,4-difluorophenoxy)-4-[(tetrahydro-2H-pyran-4-ylmethyl)amino]-1H-benzimidazol-1-yl}-2-methylbenzamide] |
| 2.4 nM | Cc1cc(-n2cnc3c(NCCC(F)(F)F)cc(Oc4ccc(Cl)cc4)cc32)ccc1C(=O)NC1CC1 [Example 18, 4-{6-(4-Chlorophenoxy)-4-[(3,3,3-trifluoropropyl)amino]-1H-benzimidazol-1-yl}-N-cyclopropyl-2-methylbenzamide] |
| 1.2 nM | Cc1ccc(F)cc1Nc1cc(NCC2CCOCC2)c2ncn(-c3ccc(C(=O)NC4CC4)c(C)c3)c2c1 [Example 19, N-cyclopropyl-4-{6-[(5-fluoro-2-methylphenyl)amino]-4-[(tetrahydro-2H-pyran-4-ylmethyl)amino]-1H-benzimidazol-1-yl}-2-methylbenzamide] |
| 1.5 nM | Cc1cc(-n2cnc3c(NCC4CCOCC4)cc(-c4ccccc4CO)cc32)ccc1C(=O)NC1CC1 [Example 20, N-cyclopropyl-4-{6-[2-(hydroxymethyl)phenyl]-4-[(tetrahydro-2H-pyran-4-ylmethyl)amino]-1H-benzimidazol-1-yl}-2-methylbenzamide] |
| 1.8 nM | Cc1cc(-n2cnc3c(NCCC(F)(F)F)cc(-c4ccccc4CO)cc32)ccc1C(=O)NC1CC1 [Example 21, N-cyclopropyl-4-{6-[2-(hydroxymethyl)phenyl]-4-[(3,3,3-trifluoropropyl)amino]-1H-benzimidazol-1-yl}-2-methylbenzamide] |
| 2.7 nM | Cc1cc(-n2cnc3c(NCC4CCOCC4)cc(Oc4ccc(Cl)c(F)c4)cc32)ccc1C(=O)NC1CC1 [Example 22, 4-{6-(4-Chloro-3-fluorophenoxy)-4-[(tetrahydro-2H-pyran-4-ylmethyl)amino]-1H-benzimidazol-1-yl}-N-cyclopropyl-2-methylbenzamide] |
| 2.2 nM | Cc1cc(-n2cnc3c(NCC4CCOCC4)cc(Oc4ccc(Cl)cc4)cc32)ccc1C(=O)NC1CC1 [Example 23, 4-{6-(4-Chlorophenoxy)-4-[(tetrahydro-2H-pyran-4-ylmethyl)amino]-1H-benzimidazol-1-yl}-N-cyclopropyl-2-methylbenzamide] |
| 0.2 nM | Cc1cc(-n2cnc3c(NCC4CCOCC4)cc(Oc4cccc(F)c4F)cc32)ccc1C(=O)NC1CC1 [Example 25, N-cyclopropyl-4-{6-(2,3-difluorophenoxy)-4-[(tetrahydro-2H-pyran-4-ylmethyl)amino]-1H-benzimidazol-1-yl}-2-methylbenzamide] |
| 1.8 nM | Cc1cc(F)cc(Oc2cc(NCCC(F)(F)F)c3ncn(-c4ccc(C(=O)NC5CC5)c(C)c4)c3c2)c1 [Example 26, N-cyclopropyl-4-{6-(3-fluoro-5-methylphenoxy)-4-[(3,3,3-trifluoropropyl)amino]-1H-benzimidazol-1-yl}-2-methylbenzamide] |
| 1.4 nM | Cc1cc(-n2cnc3c(NCCC(F)(F)F)cc(Oc4ccc(F)c(F)c4)cc32)ccc1C(=O)NC1CC1 [Example 27, N-cyclopropyl-4-{6-(3,4-difluorophenoxy)-4-[(3,3,3-trifluoropropyl)amino]-1H-benzimidazol-1-yl}-2-methylbenzamide] |
| 3.1 nM | Cc1cc(-n2cnc3c(NCCC(F)(F)F)cc(Oc4ccc(Cl)c(F)c4)cc32)ccc1C(=O)NC1CC1 [Example 28, 4-{6-(4-Chloro-3-fluorophenoxy)-4-[(3,3,3-trifluoropropyl)amino]-1H-benzimidazol-1-yl}-N-cyclopropyl-2-methylbenzamide] |
| 0.9 nM | COc1ccc(Oc2cc(NCCC(F)(F)F)c3ncn(-c4ccc(C(=O)NC5CC5)c(C)c4)c3c2)c(F)c1 [Example 29, N-cyclopropyl-4-{6-(2-fluoro-4-methoxyphenoxy)-4-[(3,3,3-trifluoropropyl)amino]-1H-benzimidazol-1-yl}-2-methylbenzamide] |

| Compound | IC50 |
| --- | --- |
| CC(C)CNc1cc(Br)cc2c1ncn2-c1ccc(C(=O)NC2CC2)cc1 [Example 6, 4-{6-bromo-4-[(2-methylpropyl)amino]-1H-benzimidazol-1-yl}-N-cyclopropylbenzamide] | 16.6 nM |
| CC(C)CNc1cc(-c2ccc(F)cc2)cc2c1ncn2-c1ccc(C(=O)NC2CC2)cc1 [Example 7, N-cyclopropyl-4-{6-(4-fluorophenyl)-4-[(2-methylpropyl)amino]-1H-benzimidazol-1-yl}benzamide] | 1.9 nM |
| CNC(=O)c1ccc(-n2cnc3c(NCCC(F)(F)F)cc(Oc4cccc(F)c4)cc32)cc1C [Example 10, 4-{6-(3-Fluorophenoxy)-4-[(3,3,3-trifluoropropyl)amino]-1H-benzimidazol-1-yl}-N,2-dimethylbenzamide] | 4.7 nM |
| CCNC(=O)c1ccc(-n2cnc3c(NCCC(F)(F)F)cc(Oc4cccc(F)c4)cc32)cc1C [Example 11, N-ethyl-4-{6-(3-fluorophenoxy)-4-[(3,3,3-trifluoropropyl)amino]-1H-benzimidazol-1-yl}-2-methylbenzamide] | 6.6 nM |
| Cc1cc(-n2cnc3c(NCCC(F)(F)F)cc(Oc4cccc(F)c4)cc32)ccc1C(=O)NC1(C)CC1 [Example 12, 4-{6-(3-Fluorophenoxy)-4-[(3,3,3-trifluoropropyl)amino]-1H-benzimidazol-1-yl}-2-methyl-N-(1-methylcyclopropyl)benzamide] | 15.3 nM |
| Cc1cc(-n2cnc3c(NCCC(F)(F)F)cc(Oc4cccc(F)c4)cc32)ccc1C(=O)NC1(C#N)CC1 [Example 13, N-(1-cyanocyclopropyl)-4-{6-(3-fluorophenoxy)-4-[(3,3,3-trifluoropropyl)amino]-1H-benzimidazol-1-yl}-2-methylbenzamide] | 48.7 nM |
| Cc1cc(-n2cnc3c(NCCC(F)(F)F)cc(-c4ccnn4C)cc32)ccc1C(=O)NC1CC1 [Example 30, N-cyclopropyl-2-methyl-4-{6-(1-methyl-1H-pyrazol-5-yl)-4-[(3,3,3-trifluoropropyl)amino]-1H-benzimidazol-1-yl}benzamide] | 4.8 nM |
